Results published in patent publication US4120892A, “Anionic naphthalene thioureido naphthalene sulfonic acids” (American Cyanamid Company, priority 1977, dated 1978).
Where a name gives a salt, the structure may show the parent alone. Read-outs that look alike come from different tables or passages of the source.

How the values were obtained:
whole complement = assay: In vivo complement inhibition in guinea pigs (serum whole complement, capillary tube assay); conditions: Cavia porcellus, ip, guinea pig, intraperitoneal
Excerpt: An active inhibitor protects C2 from C1 and C4; (ii) Test, Code 035 (C3-C9 inhibitor -- This test determines the ability of the late components of human complement (C3-C9) to lyse EAC 142 in the presence of appropriate dilutions of the test compound. An active inhibitor protects EAC 142 from lysis by human C3-C9; (iii) Test, Code 036 (C-Shunt inhibitor) -- In this test human erythrocytes rendered fragile are lysed in autologous serum via the shunt pathway activated by cobra venom factor in the presence of appropriate dilutions of the test compound. Inhibition of the shunt pathway results in failure of lysis; (iv) Forssman Vasculitis Test -- Here, the well known complement dependent lesion, Forssman vasculitis, is produced in guinea pigs by intradermal injection of rabbit anti-Forssman antiserum. The lesion is measured in terms of diameter, edema and hemorrhage and the extent to which a combined index of these is inhibited by prior intraperitoneal injection of the test compound at 200 mg/kg is then reported, unless otherwise stated; (v) Forssman Shock Test -- Lethal shock is produced in guinea pigs by an i.v. injection of anti-Forssman antiserum and the harmonic mean death time of treated guinea pigs is compared with that of simultaneous controls; (vi) Complement Level Reduction Test -- In this test, the above dosed guinea pigs, or others, are bled for serum and the complement level is determined in undiluted serum by the capillary tube method of U.S. Pat. No. 3,876,376 and compared to undosed control guinea pigs; and (vii) Cap 50 Test -- Here, appropriate amounts of the test compound are added to a pool of guinea pig serum in vitro, after which the undiluted serum capillary tube assay referred to above is run. The concentration of compound inhibiting 50% is reported.
(§1) With reference to Table I, guinea pigs weighing about 300 g were dosed intravenously (i.v.) or intraperitoneally (i.p.) with 200 mg/kg of the test compound dissolved in saline and adjusted to pH 7-8. […] Percent inhibition was calculated by comparison with simultaneous controls. […]

shunt pathway = assay: Test, Code 036 (C-Shunt inhibitor); assay type: cell-based, human; conditions: activity in wells, two-fold serial dilution assay; higher well number indicates higher activity
Excerpt: (§2) An active inhibitor protects C2 from C1 and C4; (ii) Test, Code 035 (C3-C9 inhibitor -- This test determines the ability of the late components of human complement (C3-C9) to lyse EAC 142 in the presence of appropriate dilutions of the test compound. An active inhibitor protects EAC 142 from lysis by human C3-C9; (iii) Test, Code 036 (C-Shunt inhibitor) -- In this test human erythrocytes rendered fragile are lysed in autologous serum via the shunt pathway activated by cobra venom factor in the presence of appropriate dilutions of the test compound. Inhibition of the shunt pathway results in failure of lysis; (iv) Forssman Vasculitis Test -- Here, the well known complement dependent lesion, Forssman vasculitis, is produced in guinea pigs by intradermal injection of rabbit anti-Forssman antiserum. […]
as §1

human C1 = assay: Test, Code 026 (C1 inhibitor); assay type: biochemical; conditions: activity in wells, two-fold serial dilution assay; higher well number indicates higher activity
Excerpt: as §2, §1

[1] = test system: late components of human complement (C3-C9); assay: Test, Code 035 (C3-C9 inhibitor; C-Late); assay type: cell-based; conditions: activity in wells, two-fold serial dilution assay; higher well number indicates higher activity
Excerpt: as §2, §1

[2] = reported in The New England Journal of Medicine, 286, 808-812 (1972); cited from earlier work
complement system = conditions: reported in the literature; cited from earlier work

Row | Molecule | treatment of hereditary angioneurotic edema [2] | anticomplementary effect / complement inhibition (complement system) | also measured
1 | O=S(=O)(O)c1cc(NC(=S)Nc2cc(S(=O)(=O)O)c3cc(NC(=S)Nc4cc(S(=O)(=O)O)cc5cc(S(=O)(=O)O)cc(S(=O)(=O)O)c45)cc(S(=O)(=O)O)c3c2)c2c(S(=O)(=O)O)cc(S(=O)(=O)O)cc2c1 [8,8'-[4,8-Disulfo-2,6-naphthylenebis(2-thioureylene)]-di-1,3,6-naphthalenetrisulfonic acid octasodium salt] | – | – | inhibition at 200 mg/kg (whole complement; 0.5 h, 30 minutes, read-out: In Vivo Activity (Guinea Pig) % Inhibition, Intraperitoneal, 30 minutes): -86%; inhibition at 200 mg/kg (whole complement; 1 h, 60 minutes, read-out: In Vivo Activity (Guinea Pig) % Inhibition, Intraperitoneal, 60 minutes): -84%; inhibition at 200 mg/kg (whole complement; 2 h, 120 minutes, read-out: In Vivo Activity (Guinea Pig) % Inhibition, Intraperitoneal, 120 minutes): -93%; Shunt Inhibition 036 Wells (shunt pathway): +2 Wells; Cl 026 Wells (human C1): +5 Wells; C-Late 035 Wells [1]: +2 Wells
2 | NCCCCCC(=O)O [epsilon-aminocaproic acid] | used with success in the treatment of hereditary angioneurotic edema | – | –
3 | heparin | – | anticomplementary effect | –
4 | NC[C@H]1CC[C@H](C(=O)O)CC1 [tranexamic acid] | used with success in the treatment of hereditary angioneurotic edema | – | –
5 | 8-(3-benzamido-4-methylbenzamido)naphthalene-1,3,5-trisulfonic acid [Suramin] | used with success in the treatment of hereditary angioneurotic edema | competitive inhibitor of the complement system | –
6 | Nc1ccc2cc(S(=O)(=O)O)cc(O)c2c1N=Nc1ccc(NC(=O)Nc2ccc(N=Nc3c(N)ccc4cc(S(=O)(=O)O)cc(O)c34)c(S(=O)(=O)O)c2)cc1S(=O)(=O)O [chlorazol fast pink, 3,3'-ureylenebis-[6-(2-amino-8-hydroxy-6-sulfo-1-naphthylazo)]benzenesulfonic acid, tetrasodium salt] | – | anticomplementary effect | –
